Experimental data taken from patent publication EP4635488A1, “PHARMACEUTICAL COMPOSITION FOR PREVENTING OR TREATING BONE DISEASES” (Industry Foundation of Chonnam National University, priority 2022, dated 2024).

Experiments:
RANKL-induced BMM = assay: In vitro osteoclast formation assay (TRAP staining / TRAP activity); assay type: cell-based, C57/BL6 mice; set-up: key to Inhibition rate (%): "Inactive" indicates that the % inhibition is less than 30%; conditions: for inhibition at 2 µM / inhibition at 1 µM: Mus musculus, read-out: Inhibition rate (%); for inhibition at 2 µM / Inhibition rate (%) / inhibition at 1 µM: osteoclast differentiation in RANKL-induced BMM, mean ± SD from at least three experiments; for inhibitory effects on osteoclast formation: SAR summary in words of Table 2 (2 µM)
Protocol: Bone marrow cells (BMC) were obtained from 8-week-old female C57/BL6 mice by washing femurs and tibias with α-MEM. BMCs were then cultured overnight in full α-MEM containing 10% FBS, 100 U/mL penicillin, and 100 µg/mL streptomycin. Non-attached cells were collected and cultured with M-CSF (30 ng/ mL) for 3 days, and then the attached cells were used as BMM. All animal experiments were approved by Chonnam National University IACUC (approval number: CNU IACUC-YB-2019-49).
To generate osteoclasts, BMMs were harvested and cultured in a complete medium containing 30 ng/mL M-CSF and 50 ng/mL RANKL with or without compounds for approximately 4 days to obtain mature osteoclasts. Differentiated osteoclasts were fixed with 4% formalin for 15 minutes, and then the cells were stained using a TRAP staining kit. The spread of osteoclast areas could be observed under the microscope. The viability of BMM (1 × 10^4 cells/well) was assessed in a 96-well plate using a cell viability assay kit as previously described.

[1] = tested on: OVX-induced osteoporosis mouse model; assay: OVX-induced osteoporosis mouse model (micro-CT, body weight); assay type: in vivo, C57BL/6 female mice; conditions: 20 mg/kg intraperitoneally once daily for 4 weeks after surgery; compared with the OVX group
Protocol: Specific pathogen-free facilities were used to grow mice. To investigate the effects of 25-KR-03 in vivo, the inventors established an OVX-induced osteoporosis mouse model as previously described. Seven-week-old C57BL/6 female mice were divided into four groups (Sham, OVX, 25-KR-03, and PMSA-3-Ac). Among them, the OVX, 25-KR-03, and PMSA-3-Ac groups underwent OVX surgery.
After a 1-week recovery period, mice were intraperitoneally injected with 25-KR-03 or PMSA-3-Ac (20 mg/kg, dissolved in a mixture of 10 % Tween 80 and 10% DMSO) once daily for 4 weeks. The sham and control (OVX) groups received equal volumes of the mixture of 10 % Tween 80 and 10% DMSO once daily for 4 weeks. Body weights of the mice were measured weekly. When the mice were euthanized, the femurs were isolated and fixed in 4.0% paraformaldehyde for micro-computed tomography (micro-CT) analysis as previously performed.
Micro-CT scanning was performed as in previous studies. The Quantum GX Micro-CT imaging system (PerkinElmer, Hopkinton, MA, USA) was used at the Korea Basic Science Institute (Gwangju, Korea).

## NCCCC(O)(P(=O)(O)O)P(=O)(O)O [Alendronate, reference compound]
RANKL-induced BMM; 2 µM
  inhibition at 2 µM: 41.2 ± 8.68%

## COC(=O)c1cccc(N(CC(=O)Nc2ccccc2Sc2ccccc2)S(C)(=O)=O)c1 [Compound 25-KR-01, Methyl 3-(N-(2-oxo-2-((2-(phenylthio)phenyl)amino)ethyl)methylsulfonamido) benzoate]
RANKL-induced BMM; 2 µM
  Inhibition rate (%): Inactive ^c

## CS(=O)(=O)N(CC(=O)Nc1ccccc1Sc1ccccc1)c1cccc(C(=O)O)c1 [Compound 25-KR-02, 3-(N-(2-oxo-2-((2-(phenylthio)phenyl)amino)ethyl)methylsulfonamido)benzoic acid]
RANKL-induced BMM; 2 µM
  Inhibition rate (%): Inactive ^c

## CC(C)(C)c1ccc(OC(=O)c2cccc(N(CC(=O)Nc3ccccc3Sc3ccccc3)S(C)(=O)=O)c2)cc1 [Compound 25-KR-04, 4-(tert-butyl)phenyl 3-(N-(2-oxo-2-((2-(phenylthio)phenyl)amino)ethyl)methylsulfonamido)benzoate]
RANKL-induced BMM; 2 µM
  Inhibition rate (%): Inactive ^c

## Cc1ccccc1OC(=O)c1cccc(N(CC(=O)Nc2ccccc2Sc2ccccc2)S(C)(=O)=O)c1 [Compound 25-KR-05, o -Tolyl 3-(N -(2-oxo-2-((2-(phenylthio)phenyl)amino)ethyl)methylsulfonamido) benzoate]
RANKL-induced BMM; 2 µM
  Inhibition rate (%): Inactive ^c

## Cc1cccc(OC(=O)c2cccc(N(CC(=O)Nc3ccccc3Sc3ccccc3)S(C)(=O)=O)c2)c1 [Compound 25-KR-06, m -Tolyl 3-(N-(2-oxo-2-((2-(phenylthio)phenyl)amino)ethyl)methylsulfonamido)benzoate]
RANKL-induced BMM; 2 µM
  Inhibition rate (%): Inactive ^c

## Cc1ccc(OC(=O)c2cccc(N(CC(=O)Nc3ccccc3Sc3ccccc3)S(C)(=O)=O)c2)cc1 [Compound 25-KR-07, p -Tolyl 3-(N-(2-oxo-2-((2-(phenylthio)phenyl)amino)ethyl)methylsulfonamido) benzoate]
RANKL-induced BMM; 2 µM
  Inhibition rate (%): Inactive ^c

## COc1ccccc1OC(=O)c1cccc(N(CC(=O)Nc2ccccc2Sc2ccccc2)S(C)(=O)=O)c1 [Compound 25-KR-08, 2-Methoxyphenyl 3-(N-(2-oxo-2-((2-(phenylthio)phenyl)amino)ethyl)methylsulfonamido)benzoate]
RANKL-induced BMM; 2 µM
  inhibition at 2 µM: 37.6 ± 8.21%
RANKL-induced BMM
  inhibitory effects on osteoclast formation: moderate inhibitory effects

## COc1ccc(OC(=O)c2cccc(N(CC(=O)Nc3ccccc3Sc3ccccc3)S(C)(=O)=O)c2)cc1 [Compound 25-KR-09, 4-Methoxyphenyl 3-(N-(2-oxo-2-((2-(phenylthio)phenyl)amino)ethyl)methylsulfonamido)benzoate]
RANKL-induced BMM; 2 µM
  inhibition at 2 µM: 45.8 ± 3.65%
RANKL-induced BMM
  inhibitory effects on osteoclast formation: moderate inhibitory effects

## CS(=O)(=O)N(CC(=O)Nc1ccccc1Sc1ccccc1)c1cccc(C(=O)Oc2ccc(Cl)cc2)c1 [Compound 25-KR-10, 4-Chlorophenyl 3-(N-(2-oxo-2-((2-(phenylthio)phenyl)amino)ethyl)methylsulfonamido)benzoate]
RANKL-induced BMM; 2 µM
  inhibition at 2 µM: 47.4 ± 9.79%
RANKL-induced BMM
  inhibitory effects on osteoclast formation: moderate inhibitory effects

## CS(=O)(=O)N(CC(=O)Nc1ccccc1Sc1ccccc1)c1cccc(C(=O)Oc2ccccc2C#N)c1 [Compound 25-KR-11, 2-Cyanophenyl 3-(N-(2-oxo-2-((2-(phenylthio)phenyl)amino)ethyl)methylsulfonamido)benzoate]
RANKL-induced BMM; 2 µM
  Inhibition rate (%): Inactive ^c

## CS(=O)(=O)N(CC(=O)Nc1ccccc1Sc1ccccc1)c1cccc(C(=O)Oc2cccc([N+](=O)[O-])c2)c1 [Compound 25-KR-12, 3-Nitrophenyl 3-(N-(2-oxo-2-((2-(phenylthio)phenyl)amino)ethyl)methylsulfonamido)benzoate]
RANKL-induced BMM; 2 µM
  Inhibition rate (%): Inactive ^c

## CS(=O)(=O)N(CC(=O)Nc1ccccc1Sc1ccccc1)c1cccc(C(=O)Oc2ccc([N+](=O)[O-])cc2)c1 [Compound 25-KR-13, 4-Nitrophenyl 3-(N-(2-oxo-2-((2-(phenylthio)phenyl)amino)ethyl)methylsulfonamido)benzoate]
RANKL-induced BMM; 2 µM
  Inhibition rate (%): Inactive ^c

## CS(=O)(=O)N(CC(=O)Nc1ccccc1Sc1ccccc1)c1cccc(C(=O)Oc2cccc3ccccc23)c1 [Compound 25-KR-14, Naphthalen-1-yl 3-(N-(2-oxo-2-((2-(phenylthio)phenyl)amino)ethyl)methylsulfonamido)benzoate]
RANKL-induced BMM; 2 µM
  Inhibition rate (%): Inactive ^c

## CS(=O)(=O)N(CC(=O)Nc1ccccc1Sc1ccccc1)c1cccc(C(=O)Oc2ccc3ccccc3c2)c1 [Compound 25-KR-15, Naphthalen-2-yl 3-(N-(2-oxo-2-((2-(phenylthio)phenyl)amino)ethyl)methylsulfonamido)benzoate]
RANKL-induced BMM; 2 µM
  Inhibition rate (%): Inactive ^c

## CC(C)(C)[Si](C)(C)Oc1cccc(N(CC(=O)Nc2ccccc2Sc2ccccc2)S(C)(=O)=O)c1 [Compound 25-KR-16, 2-(N-(3-((tert-butyldimethylsilyl)oxy)phenyl)methylsulfonamido)-N-(2-(phenylthio)phenyl)acetamide]
RANKL-induced BMM; 2 µM
  Inhibition rate (%): Inactive ^c

## CS(=O)(=O)N(CC(=O)Nc1ccccc1Sc1ccccc1)c1cccc(O)c1 [Compound 25-KR-17, 2-(N-(3-hydroxyphenyl)methylsulfonamido)-N-(2-(phenylthio)phenyl)acetamide]
RANKL-induced BMM; 2 µM
  Inhibition rate (%): Inactive ^c

## CC(C)(C)[Si](C)(C)Oc1cccc(NCC(=O)Nc2ccccc2Sc2ccccc2)c1 [Compound 25-KR-18, 2-((3-((tert-butyldimethylsilyl)oxy)phenyl)amino)-N-(2-(phenylthio)phenyl)acetamide]
RANKL-induced BMM; 2 µM
  Inhibition rate (%): Inactive ^c

## O=C(CNc1cccc(O)c1)Nc1ccccc1Sc1ccccc1 [Compound 25-KR-19, 2-((3-Hydroxyphenyl)amino)-N-(2-(phenylthio)phenyl)acetamide]
RANKL-induced BMM; 2 µM
  Inhibition rate (%): Inactive ^c

## COc1ccccc1OC(=O)c1cccc(NCC(=O)Nc2ccccc2Sc2ccccc2)c1 [Compound 25-KR-20, 2-Methoxyphenyl 3-((2-oxo-2-((2-(phenylthio)phenyl)amino)ethyl)amino) benzoate]
RANKL-induced BMM; 1 µM
  Inhibition rate (%): 52.27±1.11%

## COc1ccc(OC(=O)c2cccc(NCC(=O)Nc3ccccc3Sc3ccccc3)c2)cc1 [Compound 25-KR-21, 4-Methoxyphenyl 3-((2-oxo-2-((2-(phenylthio)phenyl)amino)ethyl)amino) benzoate]
RANKL-induced BMM; 1 µM
  Inhibition rate (%): 50.91 ± 1.93%

## Cc1ccccc1OC(=O)c1cccc(NCC(=O)Nc2ccccc2Sc2ccccc2)c1 [Compound 25-KR-22, o-Tolyl 3-((2-oxo-2-((2-(phenylthio)phenyl)amino)ethyl)amino)benzoate]
RANKL-induced BMM; 1 µM
  inhibition at 1 µM: 47.7 ± 11.4%

## Cc1cccc(OC(=O)c2cccc(NCC(=O)Nc3ccccc3Sc3ccccc3)c2)c1 [Compound 25-KR-23, m-Tolyl 3-((2-oxo-2-((2-(phenylthio)phenyl)amino)ethyl)amino)benzoate]
RANKL-induced BMM; 1 µM
  inhibition at 1 µM: 46.8 ± 13.4%

## Cc1ccc(OC(=O)c2cccc(NCC(=O)Nc3ccccc3Sc3ccccc3)c2)cc1 [Compound 25-KR-24, p-Tolyl 3-((2-oxo-2-((2-(phenylthio)phenyl)amino)ethyl)amino)benzoate]
RANKL-induced BMM; 1 µM
  inhibition at 1 µM: 36.8 ± 7.82%

## O=C(CNc1cccc(C(=O)Oc2ccc(Cl)cc2)c1)Nc1ccccc1Sc1ccccc1 [Compound 25-KR-25, 4-Chlorophenyl 3-((2-oxo-2-((2-(phenylthio)phenyl)amino)ethyl)amino) benzoate]
RANKL-induced BMM; 1 µM
  Inhibition rate (%): 43.18 ± 2.32%

## COC(=O)c1cccc(N(CC(=O)Nc2ccccc2Sc2ccccc2)S(=O)(=O)c2ccc(C)cc2)c1 [Compound 25-KR-26, Methyl 3-((4-methyl-N-(2-oxo-2-((2-(phenylthio)phenyl)amino)ethyl)phenyl)sulfonamido)benzoate]
RANKL-induced BMM; 1 µM
  Inhibition rate (%): 49.09 ± 2.32%

## O=C(CNc1cccc(C(=O)O)c1)Nc1ccccc1Sc1ccccc1 [Compound 25-KR-27, 3-((2-oxo-2-((2-(phenylthio)phenyl)amino)ethyl)amino)benzoic acid]
RANKL-induced BMM; 1 µM
  inhibition at 1 µM: 31.8 ± 1.93%

## CC(=O)c1cccc(N(CC(=O)Nc2ccccc2Sc2ccccc2)S(C)(=O)=O)c1 [PMSA-3-Ac, reference compound]
[1]
  prevention of bone loss (Tb.Th and BMD values, micro-CT of femur): no significant effect
